Each structure is given as a SMILES string. pIC50: −log10 of the molar value.

Series [1] in a line: Distribution in blood expressed as [18F]- organ uptake in % of injected activity/gram. The format is ADME, tissue-based, Cavia porcellus. The settings on record: guinea pig.
Series [2] can be described thus: Half-life was measured. It counts as ADME, Cavia porcellus. To be noted: guinea pig.
Series [3] is described as follows: Distribution in intestine expressed as [18F]- organ uptake in % of injected activity/gram. It counts as ADME, tissue-based, Cavia porcellus. To be noted: guinea pig.
Series [4] is described as follows: Distribution in spleen expressed as [18F]- organ uptake in % of injected activity/gram. It counts as ADME, tissue-based, Cavia porcellus. To be noted: guinea pig.
Series [5] in a line: Distribution in brain expressed as [18F]- organ uptake in % of injected activity/gram. The format is ADME, tissue-based, Cavia porcellus. To be noted: guinea pig.
Series [6] can be described thus: Distribution in kidney expressed as [18F]- organ uptake in % of injected activity/gram. The settings on record: guinea pig. It counts as ADME, tissue-based, Cavia porcellus.
Series [7] can be described thus: Distribution in liver expressed as [18F]- organ uptake in % of injected activity/gram. It counts as ADME, tissue-based, Cavia porcellus. The settings on record: guinea pig.
Series [8] is described as follows: Distribution in lung expressed as [18F]- organ uptake in % of injected activity/gram. It counts as ADME, tissue-based, Cavia porcellus. To be noted: guinea pig.
Series [9] addresses Beta-2 adrenergic receptor (Cavia porcellus, UniProt Q8K4Z4). As to the kind of experiment: In vitro inhibitory concentration Beta-2 adrenergic receptor in Guinea pig trachea.
The nature of series [10]: Distribution in heart expressed as [18F]- organ uptake in % of injected activity/gram. The settings on record: guinea pig. The format is ADME, tissue-based, Cavia porcellus.

Chain of Beta-2 adrenergic receptor (Q8K4Z4 whole entry): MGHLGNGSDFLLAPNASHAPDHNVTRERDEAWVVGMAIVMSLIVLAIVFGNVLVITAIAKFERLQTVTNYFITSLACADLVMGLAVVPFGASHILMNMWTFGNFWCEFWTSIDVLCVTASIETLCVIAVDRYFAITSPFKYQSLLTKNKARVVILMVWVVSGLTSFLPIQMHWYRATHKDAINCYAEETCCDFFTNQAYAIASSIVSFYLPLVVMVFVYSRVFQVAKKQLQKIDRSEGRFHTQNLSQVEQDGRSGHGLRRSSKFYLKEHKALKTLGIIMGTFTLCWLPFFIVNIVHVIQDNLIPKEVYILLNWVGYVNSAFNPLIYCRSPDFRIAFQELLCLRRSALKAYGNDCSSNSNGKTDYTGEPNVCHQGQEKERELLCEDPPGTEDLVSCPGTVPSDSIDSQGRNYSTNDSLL

As for `CC(Cc1ccc(OCCF)cc1)NCC(O)c1cc(O)cc(O)c1` (stereo not given), the ID/g in [1] is given as 0.22%; in series [3], 0.77%; in series [4], 0.84%; in series [5], 0.02%; in series [6], 0.7%; in series [7] it was 0.95%. In addition, the ID/g was determined as 1.16% in series [8] and 0.49% in [10]. Besides, in [2], the half-life (usually the time needed for the level to fall by half in the phase considered) is 1.83 h. Further, the pIC50 (as a rule, −log10 of the IC50, conventionally taken in molar units) in series [9] is 7.22.
